Data reported in ChEMBL document CHEMBL1155851, “Synthesis of some novel imidazole-based dicationic carbazolophanes as potential antibacterials” (2008).
Values after ≈ are worked out from the molar mass of the structure shown. Active and inactive are the calls of the source. The rule behind the calls is not given here.

Tests used:
Staphylococcus aureus [1] = test: Antimicrobial activity against Staphylococcus aureus; assay type: functional
Salmonella typhi = test: Antimicrobial activity against Salmonella typhi; assay type: functional, Salmonella enterica subsp. enterica serovar Typhi; details: Salmonella enterica
Pseudomonas aeruginosa = test: Antimicrobial activity against Pseudomonas aeruginosa; assay type: functional
Proteus mirabilis = test: Antimicrobial activity against Proteus mirabilis; assay type: functional
Proteus vulgaris = test: Antimicrobial activity against Proteus vulgaris; assay type: functional
Staphylococcus aureus [2] = test system: Staphylococcus aureus

SMILES | MIC (Staphylococcus aureus [1]) | MIC (Salmonella typhi) | MIC (Pseudomonas aeruginosa) | MIC (Proteus mirabilis) | MIC (Proteus vulgaris) | MIC (Staphylococcus aureus [2])
CCn1c2ccc3cc2c2cc(ccc21)C(=O)c1ccc(cc1)Cn1cc[n+](c1)Cc1cccc(n1)C[n+]1ccn(c1)Cc1ccc(cc1)C3=O.[Br-].[Br-] | 12 µg/mL | 15 µg/mL | 30 µg/mL | 20 µg/mL | 25 µg/mL | 
CCn1c2ccc3cc2c2cc(ccc21)C(=O)c1ccc(cc1)Cn1c[n+](c2ccccc21)Cc1cccc(n1)C[n+]1cn(c2ccccc21)Cc1ccc(cc1)C3=O.[Br-].[Br-] | 8 µg/mL | 15 µg/mL | 20 µg/mL | 10 µg/mL | 15 µg/mL | 
CCn1c2ccc3cc2c2cc(ccc21)C(=O)c1ccc(cc1)Cn1c[n+](c2ccccc21)Cc1cc(OC)c(cc1OC)C[n+]1cn(c2ccccc21)Cc1ccc(cc1)C3=O.[Br-].[Br-] |  | 40 µg/mL | 70 µg/mL | 55 µg/mL | 45 µg/mL | 
CCn1c2ccc3cc2c2cc(ccc21)C(=O)c1ccc(cc1)Cn1c[n+](c2ccccc21)Cc1cc([N+](=O)[O-])cc(c1O)C[n+]1cn(c2ccccc21)Cc1ccc(cc1)C3=O.[Br-].[Br-] | 20 µg/mL | 15 µg/mL | 30 µg/mL | 30 µg/mL | 35 µg/mL | 
CCn1c2ccc3cc2c2cc(ccc21)C(=O)c1ccc(cc1)Cn1cc[n+](c1)Cc1cc([N+](=O)[O-])cc(c1O)C[n+]1ccn(c1)Cc1ccc(cc1)C3=O.[Br-].[Br-] | 20 µg/mL | 20 µg/mL | 35 µg/mL | 20 µg/mL | 30 µg/mL | 
CCn1c2ccc3cc2c2cc(ccc21)C(=O)c1ccc(cc1)Cn1c[n+](c2ccccc21)Cc1ccc(cc1)-c1cccc(c1)-c1ccc(cc1)C[n+]1cn(c2ccccc21)Cc1ccc(cc1)C3=O.[Br-].[Br-] | 45 µg/mL | 45 µg/mL | 65 µg/mL | 50 µg/mL | 50 µg/mL | 
CCn1c2ccc3cc2c2cc(ccc21)C(=O)c1ccc(cc1)Cn1cc[n+](c1)Cc1ccc(cc1)-c1cccc(c1)-c1ccc(cc1)C[n+]1ccn(c1)Cc1ccc(cc1)C3=O.[Br-].[Br-] | 75 µg/mL | 55 µg/mL | 75 µg/mL | 75 µg/mL | 70 µg/mL | 
CCn1c2ccc3cc2c2cc(ccc21)C(=O)c1ccc(cc1)Cn1cc[n+](c1)Cc1ccc(cc1)-c1cccc(c1C(=O)O)-c1ccc(cc1)C[n+]1ccn(c1)Cc1ccc(cc1)C3=O.[Br-].[Br-] | 35 µg/mL | 35 µg/mL | 80 µg/mL | 50 µg/mL | 65 µg/mL | 
CCn1c2ccc3cc2c2cc(ccc21)C(=O)c1ccc(cc1)Cn1c[n+](c2ccccc21)Cc1ccc(cc1)-c1cccc(c1C(=O)O)-c1ccc(cc1)C[n+]1cn(c2ccccc21)Cc1ccc(cc1)C3=O.[Br-].[Br-] |  | 50 µg/mL | 70 µg/mL | 55 µg/mL | 60 µg/mL | inactive
CCn1c2ccc3cc2c2cc(ccc21)C(=O)c1ccc(cc1)Cn1c[n+](c2ccccc21)Cc1ccc(cc1)C(=O)c1ccc2c(c1)c1cc(ccc1n2CC)C(=O)c1ccc(cc1)C[n+]1cn(c2ccccc21)Cc1ccc(cc1)C3=O.[Br-].[Br-] | 26 µg/mL | 25 µg/mL | 35 µg/mL | 30 µg/mL | 30 µg/mL | 
CCn1c2ccc3cc2c2cc(ccc21)C(=O)c1ccc(cc1)Cn1cc[n+](c1)Cc1ccc(cc1)C(=O)c1ccc2c(c1)c1cc(ccc1n2CC)C(=O)c1ccc(cc1)C[n+]1ccn(c1)Cc1ccc(cc1)C3=O.[Br-].[Br-] | 25 µg/mL | 25 µg/mL | 55 µg/mL | 35 µg/mL | 40 µg/mL | 
CN(C)[C@@H]1C(O)=C(C(N)=O)C(=O)[C@@]2(O)C(O)=C3C(=O)c4c(O)cccc4[C@@](C)(O)[C@H]3C[C@@H]12 [TETRACYCLINE] | 20 µg/mL (≈ 45 µM) | 15 µg/mL (≈ 33.8 µM) | 35 µg/mL (≈ 78.8 µM) | 20 µg/mL (≈ 45 µM) | 35 µg/mL (≈ 78.8 µM) | 
